Like-named read-outs stand apart in the source and are kept apart here.

One assay deals with recombinant human Nav1.7 (Homo sapiens (Human), UniProt Q15858). As to the kind of experiment: FRET-based membrane potential assay, recombinant human sodium channel Nav1.7. Format: cell-based. Particulars: read-out: FRET-Membrane Potential Nav1.7 IC50. The method, boiled down:
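Channel activation used veratridine at its EC80, set by a dilution curve each experiment, together with Leiurus scorpion venom, added 3 min after compound. Membrane-potential ratio signals from FLIPR Tetra in HEPES-buffered HBSS were fitted to a four-parameter Hill equation for percent inhibition and IC50.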

A further assay deals with recombinant human Nav1.8 (Homo sapiens (Human), UniProt Q9Y5Y9). The assay can be described thus: FRET-based membrane potential assay, recombinant human sodium channel Nav1.8. Format: cell-based.
Another assay concerns osteoarthritic rats. The assay can be described thus: Osteoarthritic (OA) pain induced by sodium monoiodoacetate (MIA), hind limb grip force. Format: in vivo, rat. The conditions noted are these: Rattus norvegicus, 480 h, read-out: OA MPE; for inhibition in vivo at 10 mg/kg: OA dose 10 mg/kg. The method, boiled down: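 Male Sprague Dawley rats (150-175 g) received a single unilateral intra-articular knee injection of MIA (3 mg/rat) and were tested 20 days later. Peak hind limb grip force (CFmax, g force/kg body weight, mean of two trials) was scored blinded. % effect set vehicle as 0% and age-matched naïve rats as 100%.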

Assay [1] has as its system spinal nerve ligated rats. As to the kind of experiment: Rat spinal nerve ligation (SNL) model of neuropathic pain, paw withdrawal threshold. Format: in vivo. The conditions noted are these: read-out: SNL MPE. An excerpt: Rat Spinal Nerve Ligation (SNL) Model of Neuropathic Pain.
The male Sprague Dawley rats (Charles River Laboratories, Wilmington, Mass.), weighing 150-175 g at the time of surgery, were placed under isoflurane anesthesia and a 1.5 cm incision was made dorsal to the lumbosacral plexus. The paraspinal muscles (left side) were separated from the spinous processes, the left L5 and L6 spinal nerves isolated, and tightly ligated with 5-0 silk suture distal to the dorsal root ganglion. Care was taken to avoid ligating the L4 spinal nerve. Following spinal nerve ligation, a minimum of 7 days of recovery and no more than 3 weeks was allowed prior to the behavioral testing (mechanical sensitivity). Only rats with threshold scores ≦4.5 g were considered allodynic and utilized in pharmacological experiments.
Mechanical sensitivity was measured using calibrated von Frey filaments (Stoelting, Wood Dale, Ill.). […] The von Frey filaments were presented perpendicularly to the plantar surface of the selected hind paw, and then held in this position for approximately 8 seconds with enough force to cause a slight bend in the filament. Positive responses included an abrupt withdrawal of the hind paw from the stimulus, or flinching behavior immediately following removal of the stimulus. […] A percent maximal possible effect (% MPE) of testing compound was calculated according to the formula: (Log [compound−treated threshold]−Log [vehicle−treated threshold])/(Log [maximum threshold]−Log [vehicle−treated threshold])×100%, where the maximum threshold was equal to 15 g.
The animals were housed in Association for Assessment and Accreditation of Laboratory Animal Care (AAALAC) approved facilities at AbbVie Inc. in a temperature-regulated environment under a controlled 12-hour light-dark cycle, with lights on at 6:00 a.m. Food and water were available ad libitum at all times except during testing. All testing was done following procedures outlined in protocols approved by AbbVie Inc.s' Institutional Animal Care and Use Committee.

Setting [2] is: HEK293 cells stably expressing recombinant human Nav1.7, veratridine + scorpion venom depolarization.
[3] abbreviates: HEK293 cells stably expressing recombinant human Nav1.8, veratridine + scorpion venom depolarization.
The mark [4] stands for this setting: OA dose 30 mg/kg, rat, 20 days following MIA injection, hind limb grip force.
Setting [5] is: SNL dose 100 mg/kg, rat, von Frey paw withdrawal threshold.
[6] abbreviates: rat, 20 days following MIA injection, hind limb grip force.

Chain of recombinant human Nav1.7 (Q15858 whole entry): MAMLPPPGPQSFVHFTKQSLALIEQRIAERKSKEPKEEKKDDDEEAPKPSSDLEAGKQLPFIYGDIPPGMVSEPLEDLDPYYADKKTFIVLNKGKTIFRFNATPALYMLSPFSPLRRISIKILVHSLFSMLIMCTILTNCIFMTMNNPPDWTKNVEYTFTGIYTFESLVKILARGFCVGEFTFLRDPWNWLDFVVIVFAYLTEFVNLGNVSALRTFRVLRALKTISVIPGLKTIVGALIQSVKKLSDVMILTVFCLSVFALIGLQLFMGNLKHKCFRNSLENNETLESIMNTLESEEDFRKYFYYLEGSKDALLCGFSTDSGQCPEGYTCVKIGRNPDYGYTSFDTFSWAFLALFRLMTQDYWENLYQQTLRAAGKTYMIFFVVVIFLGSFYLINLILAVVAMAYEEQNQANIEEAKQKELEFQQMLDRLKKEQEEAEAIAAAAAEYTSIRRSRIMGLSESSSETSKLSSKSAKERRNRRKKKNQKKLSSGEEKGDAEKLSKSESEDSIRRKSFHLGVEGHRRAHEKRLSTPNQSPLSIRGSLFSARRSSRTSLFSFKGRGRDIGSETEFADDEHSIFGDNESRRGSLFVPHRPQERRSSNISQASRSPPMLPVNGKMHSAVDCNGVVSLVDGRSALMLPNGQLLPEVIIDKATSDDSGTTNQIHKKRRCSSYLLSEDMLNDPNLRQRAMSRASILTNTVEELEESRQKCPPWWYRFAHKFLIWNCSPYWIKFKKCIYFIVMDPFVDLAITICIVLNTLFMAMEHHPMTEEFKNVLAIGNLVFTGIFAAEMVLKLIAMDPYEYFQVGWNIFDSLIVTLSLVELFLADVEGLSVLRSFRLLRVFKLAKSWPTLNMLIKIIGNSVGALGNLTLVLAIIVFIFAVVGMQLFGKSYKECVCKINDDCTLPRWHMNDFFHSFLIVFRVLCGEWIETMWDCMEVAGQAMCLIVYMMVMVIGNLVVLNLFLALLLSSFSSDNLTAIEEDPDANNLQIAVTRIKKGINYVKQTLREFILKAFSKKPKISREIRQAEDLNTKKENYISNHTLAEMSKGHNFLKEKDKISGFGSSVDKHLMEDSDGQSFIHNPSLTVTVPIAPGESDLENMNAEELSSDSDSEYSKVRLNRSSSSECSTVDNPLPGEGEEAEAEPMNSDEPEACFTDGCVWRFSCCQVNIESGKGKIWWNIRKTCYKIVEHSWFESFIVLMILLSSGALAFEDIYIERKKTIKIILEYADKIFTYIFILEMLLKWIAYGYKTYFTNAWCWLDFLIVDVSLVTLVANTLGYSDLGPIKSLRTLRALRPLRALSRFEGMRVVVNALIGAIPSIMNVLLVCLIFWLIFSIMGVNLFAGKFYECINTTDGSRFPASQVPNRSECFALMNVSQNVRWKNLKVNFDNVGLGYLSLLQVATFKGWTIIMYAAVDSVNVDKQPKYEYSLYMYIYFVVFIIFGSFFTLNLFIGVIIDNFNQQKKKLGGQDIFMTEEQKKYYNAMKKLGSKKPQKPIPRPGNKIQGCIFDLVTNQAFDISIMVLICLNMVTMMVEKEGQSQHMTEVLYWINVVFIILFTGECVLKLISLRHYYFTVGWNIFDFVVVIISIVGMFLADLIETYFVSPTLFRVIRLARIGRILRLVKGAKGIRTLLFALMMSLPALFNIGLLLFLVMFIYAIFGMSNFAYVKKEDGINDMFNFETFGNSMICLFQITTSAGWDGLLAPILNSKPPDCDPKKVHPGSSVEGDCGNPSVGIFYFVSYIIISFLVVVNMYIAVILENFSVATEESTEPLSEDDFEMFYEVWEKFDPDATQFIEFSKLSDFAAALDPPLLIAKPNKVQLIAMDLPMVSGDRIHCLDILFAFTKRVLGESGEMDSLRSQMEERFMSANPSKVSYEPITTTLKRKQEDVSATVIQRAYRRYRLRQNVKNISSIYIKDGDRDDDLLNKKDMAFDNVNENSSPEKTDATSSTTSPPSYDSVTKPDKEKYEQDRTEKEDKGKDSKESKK
Chain of recombinant human Nav1.8 (Q9Y5Y9 whole entry): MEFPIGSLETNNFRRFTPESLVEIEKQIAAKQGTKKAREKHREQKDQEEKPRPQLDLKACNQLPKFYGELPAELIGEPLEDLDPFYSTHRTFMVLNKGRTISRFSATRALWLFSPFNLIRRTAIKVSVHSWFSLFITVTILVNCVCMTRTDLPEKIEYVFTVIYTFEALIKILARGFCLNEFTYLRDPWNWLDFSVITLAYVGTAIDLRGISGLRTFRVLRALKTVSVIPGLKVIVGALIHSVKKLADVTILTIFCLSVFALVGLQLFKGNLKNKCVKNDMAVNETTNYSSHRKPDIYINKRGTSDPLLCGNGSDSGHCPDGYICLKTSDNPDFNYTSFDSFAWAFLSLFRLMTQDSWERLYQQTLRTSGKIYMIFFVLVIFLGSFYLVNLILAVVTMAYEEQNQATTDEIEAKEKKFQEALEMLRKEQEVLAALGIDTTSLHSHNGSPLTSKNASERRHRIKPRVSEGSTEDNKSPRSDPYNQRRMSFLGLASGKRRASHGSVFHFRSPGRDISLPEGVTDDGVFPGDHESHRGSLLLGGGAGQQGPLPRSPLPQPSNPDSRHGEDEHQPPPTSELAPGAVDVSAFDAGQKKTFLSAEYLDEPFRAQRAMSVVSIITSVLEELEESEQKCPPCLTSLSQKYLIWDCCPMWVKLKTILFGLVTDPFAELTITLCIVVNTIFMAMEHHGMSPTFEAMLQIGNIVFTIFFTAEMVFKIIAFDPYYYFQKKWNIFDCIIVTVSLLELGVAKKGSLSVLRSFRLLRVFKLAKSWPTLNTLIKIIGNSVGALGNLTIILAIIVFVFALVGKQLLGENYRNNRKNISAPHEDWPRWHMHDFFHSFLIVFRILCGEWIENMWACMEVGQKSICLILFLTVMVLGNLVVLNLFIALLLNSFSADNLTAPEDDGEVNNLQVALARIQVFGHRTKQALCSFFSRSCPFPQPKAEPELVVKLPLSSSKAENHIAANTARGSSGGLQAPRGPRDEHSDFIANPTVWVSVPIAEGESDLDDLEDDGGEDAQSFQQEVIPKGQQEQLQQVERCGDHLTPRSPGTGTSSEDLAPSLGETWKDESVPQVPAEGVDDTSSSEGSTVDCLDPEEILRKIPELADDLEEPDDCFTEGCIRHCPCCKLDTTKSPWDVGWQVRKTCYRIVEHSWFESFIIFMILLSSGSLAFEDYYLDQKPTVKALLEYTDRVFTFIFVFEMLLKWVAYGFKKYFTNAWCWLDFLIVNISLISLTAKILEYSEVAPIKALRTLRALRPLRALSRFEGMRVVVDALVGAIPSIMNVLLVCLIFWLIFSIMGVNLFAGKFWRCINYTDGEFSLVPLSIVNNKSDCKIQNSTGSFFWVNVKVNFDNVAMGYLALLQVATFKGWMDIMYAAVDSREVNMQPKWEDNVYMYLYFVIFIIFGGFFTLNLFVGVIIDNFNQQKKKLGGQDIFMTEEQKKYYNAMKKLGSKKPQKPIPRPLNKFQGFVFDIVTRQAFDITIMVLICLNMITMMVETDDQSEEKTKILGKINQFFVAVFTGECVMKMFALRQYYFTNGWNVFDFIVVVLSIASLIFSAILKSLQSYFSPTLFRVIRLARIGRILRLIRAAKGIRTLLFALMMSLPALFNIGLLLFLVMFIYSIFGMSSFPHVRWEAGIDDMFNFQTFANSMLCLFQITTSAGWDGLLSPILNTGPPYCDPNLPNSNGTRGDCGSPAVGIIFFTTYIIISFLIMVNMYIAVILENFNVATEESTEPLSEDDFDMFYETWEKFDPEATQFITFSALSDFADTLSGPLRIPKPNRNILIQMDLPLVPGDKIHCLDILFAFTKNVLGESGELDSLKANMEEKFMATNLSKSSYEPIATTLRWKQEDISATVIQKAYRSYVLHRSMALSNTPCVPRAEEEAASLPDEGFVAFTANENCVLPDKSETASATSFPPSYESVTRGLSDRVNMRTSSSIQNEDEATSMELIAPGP

Regarding `O=C(NC1CCS(=O)(=O)C1)c1ccc2cc(Oc3ccc(C(F)(F)F)cn3)ccc2n1` (stereo not shown) [Example 2, N-(1,1-dioxidotetrahydrothiophen-3-yl)-6-{[5-(trifluoromethyl)pyridin-2-yl]oxy}quinoline-2-carboxamide], the half-inhibitory concentration (IC50) at recombinant human Nav1.7 (setting [2]) was 0.504 µM; on recombinant human Nav1.8 (setting [3]), 0.648 µM. Also, the inhibition in vivo at 30 mg/kg in the assay on osteoarthritic rats (setting [4]) amounted to 85%. In addition, the inhibition in vivo at 100 mg/kg in assay [1] (setting [5]) was 54%.

As to `O=C(c1ccc2cc(Oc3ccc(C(F)(F)F)cn3)ccc2n1)N1CCNCC1` [Example 1, piperazin-1-yl(6-{[5-(trifluoromethyl)pyridin-2-yl]oxy}quinolin-2-yl)methanone], in the assay with osteoarthritic rats (setting [4]), the inhibition in vivo at 30 mg/kg was found to be 64%. Moreover, the inhibition in vivo at 100 mg/kg in assay [1] (setting [5]) came out at 49%.

In the case of `O=C(NCC(F)(F)F)c1ccc2cc(Oc3ccc(C(F)(F)F)cn3)ccc2n1` [Example 344, N-(2,2,2-trifluoroethyl)-6-{[5-(trifluoromethyl)pyridin-2-yl]oxy}quinoline-2-carboxamide], the IC50 at recombinant human Nav1.7 (setting [2]) amounted to 2.1 µM; at recombinant human Nav1.8 (setting [3]) it was 0.67 µM. For the same compound, in the assay with osteoarthritic rats (setting [4]), the inhibition in vivo at 30 mg/kg turned out to be 59%. Moreover, the inhibition in vivo at 100 mg/kg in assay [1] (setting [5]) turned out to be 76%.

Regarding `CN(C)C(=O)CNC(=O)c1ccc2cc(Oc3ccc(C(F)(F)F)cn3)ccc2n1` [Example 33, N-[2-(dimethylamino)-2-oxoethyl]-6-{[5-(trifluoromethyl)pyridin-2-yl]oxy}quinoline-2-carboxamide], the results for the IC50 at recombinant human Nav1.7 and on recombinant human Nav1.8 were 0.471 µM and 0.74 µM, respectively. For the same compound, the inhibition in vivo at 30 mg/kg with osteoarthritic rats (setting [4]) worked out at 61%. Besides, the inhibition in vivo at 100 mg/kg in assay [1] (setting [5]) was 50%.

As to `O=C(c1ccc2cc(Oc3ccc(C(F)(F)F)cn3)ccc2n1)N1CC(N2CCOCC2)C1` [Example 6, [3-(morpholin-4-yl)azetidin-1-yl](6-{[5-(trifluoromethyl)pyridin-2-yl]oxy}quinolin-2-yl)methanone], the results for the half-maximal inhibitory concentration (IC50) at recombinant human Nav1.7 (setting [2]) and at recombinant human Nav1.8 were 2.93 µM and 4.61 µM, respectively. Moreover, the inhibition in vivo at 10 mg/kg in the assay with osteoarthritic rats (setting [6]) stood at 72%. For the same compound, the inhibition in vivo at 100 mg/kg in assay [1] (setting [5]) is 27%.

On to `O=C(c1ccc2cc(Oc3ccc(C(F)F)cn3)ccc2n1)N1CCNCC1` [Example 14, (6-{[5-(difluoromethyl)pyridin-2-yl]oxy}quinolin-2-yl)(piperazin-1-yl)methanone], for which the inhibition in vivo at 30 mg/kg in the assay with osteoarthritic rats (setting [4]) was found to be 81%. Further, the inhibition in vivo at 100 mg/kg in assay [1] (setting [5]) was determined as 44%.

`O=C(N[C@H]1CCS(=O)(=O)C1)c1ccc2cc(Oc3ccc(C(F)(F)F)cn3)ccc2n1` [Example 4, N-[(3S)-1,1-dioxidotetrahydrothiophen-3-yl]-6-{[5-(trifluoromethyl)pyridin-2-yl]oxy}quinoline-2-carboxamide]: the IC50 at recombinant human Nav1.7 (setting [2]) turned out to be 0.856 µM. Moreover, in the assay with osteoarthritic rats (setting [4]), the inhibition in vivo at 30 mg/kg was determined as 60%. In addition, the inhibition in vivo at 100 mg/kg in assay [1] (setting [5]) was 56%.

On to `O=C(c1ccc2cc(Oc3ccc(C(F)(F)F)cn3)ccc2n1)N1CCC(N2CCOCC2)CC1` [Example 11, [4-(morpholin-4-yl)piperidin-1-yl](6-{[5-(trifluoromethyl)pyridin-2-yl]oxy}quinolin-2-yl)methanone], for which the results for the IC50 at recombinant human Nav1.7 (setting [2]) and at recombinant human Nav1.8 (setting [3]) were 1.61 µM and 1.69 µM, respectively. The inhibition in vivo at 10 mg/kg in the assay on osteoarthritic rats (setting [6]) is 72%. Also, the inhibition in vivo at 100 mg/kg in assay [1] (setting [5]) was 34%.

Regarding `O=C(c1ccc2cc(Oc3ccc(C(F)(F)F)cn3)ccc2n1)N1C[C@@H](F)C[C@H]1CO` [Example 50, [(2S,4S)-4-fluoro-2-(hydroxymethyl)pyrrolidin-1-yl](6-{[5-(trifluoromethyl)pyridin-2-yl]oxy}quinolin-2-yl)methanone], at recombinant human Nav1.7 (setting [2]), the 50% inhibitory concentration (IC50) was determined as 12.2 µM. The inhibition in vivo at 30 mg/kg with osteoarthritic rats (setting [4]) was determined as 81%. For the same compound, the inhibition in vivo at 100 mg/kg in assay [1] (setting [5]) is 94%.

In the case of `O=C(NC1CC(F)(F)C1)c1ccc2cc(Oc3ccc(C(F)(F)F)cn3)ccc2n1` [Example 59, N-(3,3-difluorocyclobutyl)-6-{[5-(trifluoromethyl)pyridin-2-yl]oxy}quinoline-2-carboxamide], at recombinant human Nav1.7, the half-inhibitory concentration (IC50) was 1.7 µM. Also, the inhibition in vivo at 30 mg/kg in the assay with osteoarthritic rats (setting [4]) was 83%. In addition, the inhibition in vivo at 100 mg/kg in assay [1] (setting [5]) came to 84%.

`O=C(c1ccc2cc(Oc3ccc(C(F)(F)F)cn3)ccc2n1)N1CCC(F)C1` (stereo not shown) [Example 35, (3-fluoropyrrolidin-1-yl)(6-{[5-(trifluoromethyl)pyridin-2-yl]oxy}quinolin-2-yl)methanone]: the IC50 on recombinant human Nav1.7 (setting [2]) was 1.27 µM. Besides, the inhibition in vivo at 10 mg/kg in the assay with osteoarthritic rats (setting [6]) was 79%. In addition, the inhibition in vivo at 100 mg/kg in assay [1] (setting [5]) stood at 74%.

`O=C(c1ccc2cc(Oc3ccc(C(F)(F)F)cn3)ccc2n1)N1CC[C@@H](F)C1` [Example 52, [(3R)-3-fluoropyrrolidin-1-yl](6-{[5-(trifluoromethyl)pyridin-2-yl]oxy}quinolin-2-yl)methanone]: the IC50 on recombinant human Nav1.7 (setting [2]) is 2.98 µM. Besides, the inhibition in vivo at 30 mg/kg in the assay with osteoarthritic rats (setting [4]) was 86%. Besides, in assay [1] (setting [5]), the inhibition in vivo at 100 mg/kg came out at 81%.

Consider `COCCNC(=O)c1ccc2cc(Oc3ccc(C(F)(F)F)cn3)ccc2n1` [Example 22, N-(2-methoxyethyl)-6-{[5-(trifluoromethyl)pyridin-2-yl]oxy}quinoline-2-carboxamide], for which the IC50 at recombinant human Nav1.7 (setting [2]) came out at 1.98 µM; at recombinant human Nav1.8 (setting [3]) it was 3.54 µM. Moreover, the inhibition in vivo at 30 mg/kg with osteoarthritic rats (setting [4]) worked out at 73%. Besides, the inhibition in vivo at 100 mg/kg in assay [1] (setting [5]) was 72%.

As to `COC[C@H]1CN(C(=O)c2ccc3cc(Oc4ccc(C(F)(F)F)cn4)ccc3n2)CCN1` [Example 31, [(3R)-3-(methoxymethyl)piperazin-1-yl](6-{[5-(trifluoromethyl)pyridin-2-yl]oxy}quinolin-2-yl)methanone], the IC50 turned out to be 0.619 µM on recombinant human Nav1.7 and 1.86 µM at recombinant human Nav1.8 (setting [3]). Further, the inhibition in vivo at 30 mg/kg with osteoarthritic rats (setting [4]) was determined as 94%. The inhibition in vivo at 100 mg/kg in assay [1] (setting [5]) was 64%.

On to `O=C(c1ccc2cc(Oc3ccc(C(F)(F)F)cn3)ccc2n1)N1CCCC1` [Example 10, pyrrolidin-1-yl(6-{[5-(trifluoromethyl)pyridin-2-yl]oxy}quinolin-2-yl)methanone], for which, in the assay on osteoarthritic rats, the inhibition in vivo at 30 mg/kg was found to be 48%. The inhibition in vivo at 100 mg/kg in assay [1] (Rattus norvegicus) stood at 35%.

For the compound `O=C(c1ccc2cc(Oc3ccc(C(F)(F)F)cn3)ccc2n1)N1CC[C@H](F)C1` [Example 51, [(3S)-3-fluoropyrrolidin-1-yl](6-{[5-(trifluoromethyl)pyridin-2-yl]oxy}quinolin-2-yl)methanone], the IC50 on recombinant human Nav1.7 (setting [2]) was 2.25 µM. Besides, the inhibition in vivo at 30 mg/kg with osteoarthritic rats (setting [4]) was 52%. The inhibition in vivo at 100 mg/kg in assay [1] (setting [5]) was 90%.

For the compound `O=C1C[C@@H](NC(=O)c2ccc3cc(Oc4ccc(C(F)(F)F)cn4)ccc3n2)CN1` [Example 58, N-[(3R)-5-oxopyrrolidin-3-yl]-6-{[5-(trifluoromethyl)pyridin-2-yl]oxy}quinoline-2-carboxamide], the IC50 on recombinant human Nav1.7 (setting [2]) was 1.03 µM; at recombinant human Nav1.8 (setting [3]) it was 2.84 µM. The inhibition in vivo at 30 mg/kg in the assay on osteoarthritic rats (setting [4]) was found to be 64%.
